In paper PMC9501810, “Bitter Peptides YFYPEL, [sequence], and [sequence], Released during Gastric Digestion of Casein, Stimulate Mechanisms of Gastric Acid Secretion via Bitter Taste Receptors TAS2R16 and TAS2R38” (Journal of Agricultural and Food Chemistry, 2022):

How the values were obtained:
[1] = test system: pepsin; test: In vitro gastric digestion of casein with targeted UHPLC-MS/MS-MRM quantitation of peptides; type: in vitro ADME, porcine; conditions: 37 °C, n = 4; for degradation of the peptide during further in vitro gastric digestion: up to 6 h
Description: The in vitro digestion was based on the Nature protocol established by Brodkorb et al.([30]) For this, simulated salivary fluid (SSF, containing 15.1 mM KCl, 3.7 mM KH2PO4, 13.6 mM NaHCO3, 0.15 mM MgCl2(H2O)6, 0.06 mM (NH4)2CO3, 1.1 mM HCl, and 1.5 mM CaCl2(H2O)2) and simulated gastric fluid (SGF, containing 6.9 mM KCl, 0.9 mM KH2PO4, 25.0 mM NaHCO3, 47.2 mM NaCl, 0.12 mM MgCl2(H2O)6, 0.5 mM (NH4)2CO3, 15.6 mM HCl, and 0.15 mM CaCl2(H2O)2) were prepared. A total amount of 100 mg casein was suspended in 3 mL of SSF and incubated for 5 min at 37 °C in the tube rotator. After taking a sample (500 μL, t = 0 h), 2 mL of SGF was added and the pH was adjusted to 3 with 100 μL of HCl (1 M). After addition of 125 μL of pepsin solution (80,000 U/mL in 10 mM HCl), 275 μL of H2O was added to fill up to 5 mL. This was followed by further incubation at 37 °C in a tube rotator for 6 h. 500 μL of samples was taken at 0.25, 0.5, 0.75, 1, 2, 3, 4, 5, and 6 h, respectively. The samples were frozen in liquid nitrogen and stored at −80 °C until further analysis. For MS experiments, all samples were diluted 1:1 with 10% MeCN.
All targeted proteomics LC–MS/MS measurements were performed using a Sciex ExionLC AC (Sciex, Darmstadt, Germany) coupled to a 6500+ QTrap LC–MS/MS system (Sciex, Darmstadt, Germany) operating in the positive electrospray ionization mode. Data acquisition and instrumentation control were performed with AnalystTF software (v 1.7.1; Sciex, Darmstadt, Germany). Separation was performed using a 100 × 2.1 mm, 1.7 μm, Kinetex C18 column (Phenomenex, Aschaffenburg, Germany) with a guard column of the same type with 0.1% aqueous formic acid and acetonitrile containing 0.1% formic acid at a flow rate of 0.25 mL/min. The gradient was based on the following scheme: 0 min, 15% B; 7 min, 40% B; 7.5 min, 98% B; 10.5 min, 98% B; 10.8 min, 15% B; and 15 min, 15% B. The column oven temperature was set at 40 °C, and the injection volume was 1 μL per sample. For MS/MS measurements, the same parameters were used for all samples (ion spray voltage […], source temperature 450 °C, nebulizing gas 60 psi, and heating gas 30 psi). Nitrogen was set to 35 psi and served as a curtain gas to effectively dissolve the ions. To optimize the parameters DP, CE, and collision cell exit potential for each peptide and transition (Supporting Information Table-SI 2), standard solutions of the five synthesized peptides were injected directly into the MS ion source. Ionization parameters were optimized in positive ESI mode using AnalystTF software (v 1.7.1; Sciex, Darmstadt, Germany). For the preparation of the calibration curves, five peptides were dissolved individually in D2O (600 μL) and the concentration of the stock solutions was determined by qNMR.[35] For each peptide, seven calibration solutions (0.5, 1, 5, 10, 50, 100, and 200 μM) were diluted in 5% MeCN from these stock solutions. The data were analyzed using MultiQuant software (v 3.0.3; Sciex, Darmstadt, Germany).

[2] = test system: TAS2R16; test: Proton secretion assay in TAS2R16 knock-down vs mock-transfected HGT-1 cells; type: cell-based, human; conditions: TAS2R16kd vs mock-transfected HGT-1 cells, VAPFPEVF 17.5 µM, YFYPEL 0.03 µM, YQEPVLGPVRGPFPIIV 0.4 µM, 10 min, mean ± SEM; for decrease of the peptide-induced increase in proton secretion activity in TAS2R16kd cells: 72 h after 10 nM siRNA; for change of peptide-induced proton secretion, TAS2R16kd (Figure 5B–D): negative = reduction
Description: The measurement of proton secretion from HGT-1 cells represents a well-established model for the identification of bitter compounds. By affecting extraoral bitter taste receptors with bitter compounds, a modulatory effect on proton secretion can be measured. For this purpose, cells were washed with KRHB and incubated with 3 μM of the intracellular pH indicator 1,5 carboxy-seminaphto-rhodafluor acetoxymethyl ester (SNARF-1-AM) under standard conditions. After 30 min, the cells were washed again with KRHB and then incubated with casein (0.01–10 μM equimolar related to the relevant forms αS1- and β-casein), hydrolysate (0.01–10 μM), or the peptides (0.01–200 μM). […] All substances were dissolved and diluted in KRHB. 1 mM histamine was used as a positive control. Measurements were performed using FlexStation 3 (Molecular Devices, USA). The excitation wavelength was 488 nm, and the emission wavelengths were 580 and 640 nm. For calibration (pH range 7.0–8.0), the intracellular and extracellular pH was adjusted with 2 μM nigericin in potassium buffer (20 mM NaCl, 110 mM KCl, 1 mM CaCl2, 1 mM MgSO4, 18 mM D-glucose, and 20 mM HEPES). The intracellular proton index (IPX) was calculated as the log2 value of the 580/640 ratio and compared with cells without treatment. Negative values represent increased secretion of protons and therefore stimulation of mechanisms regulating gastric acid secretion in HGT-1 cells. In contrast, positive values represent an inhibition of secretion compared to the untreated control.
Expression of TAS2R16 and TAS2R38 was reduced by treatment of HGT-1 cells with siRNA. 100,000 cells per well were seeded 1 day before the experiment into a 24-well plate. All reagents and siRNA were purchased from Thermo Fisher Scientific, USA (cytotoxicity was excluded by MTT). Transfection was performed with Lipofectamine RNAiMAX in Opti-Medium according to the manufacturer’s protocol. 1–50 nM of different siRNA sequences (HSS121396 and HSS181763 for TAS2R16 and HSS108754 and HSS108756 for TAS2R38) and three different incubation times (24, 48, and 72 h) were tested. Mock control experiments were performed analogously with 1 or 10 nM Stealth RNAi siRNA negative control. To verify the functionality of the transfection process, verified 10 nM siRNA targeting MAPK1 (VHS40312) was used (positive control). The transfection rate was checked by qPCR as described in section 2.11. For the proton secretion assays, 20,000 cells per well were seeded 1 day before transfection into a black 96-well plate. After 72 h of transfection, proton secretion activities of TAS2R16 knock-down or TAS2R38 knock-down HGT-1 were compared with the mock transfected cells by means of ΔIPX.

Substance	degradation of the peptide during further in vitro gastric digestion ([1]; SGF pH 3 with pepsin)	decrease of the peptide-induced increase in proton secretion activity in TAS2R16kd cells [2]	change of peptide-induced proton secretion, TAS2R16kd (Figure 5B–D) [2]	final concentration after 6 h of in vitro digestion ([1]; 100 mg casein, SGF pH 3 with pepsin, 6 h, mean)	highest concentration released during in vitro digestion ([1]; 100 mg casein, SSF then SGF pH 3 with pepsin, 0–6 h, mean)
VAPFPEVF [bitter casein peptide αS1-CN25–32]	no noticeable degradation	77.4 ± 10.1%	-77.4 ±10.1%		
YFYPEL [bitter casein peptide αS1-CN144–149]	no noticeable degradation	86.3 ± 9.9%	-86.3 ±9.9%		
YQEPVLGPVRGPFPIIV [bitter casein peptide βA1/A2-CN193–209]	continuous cleavage over the 6 h	76.6 ± 9.9%	-76.6 ±9.9%	22.5 µM	up to 300.8 μM
